In data set [1] the target is T1, IRAK4-HiBiT fusion protein (Homo sapiens, UniProt Q9NWZ3).
T1 construct: K562 from ATCC
T1 sequence (Q9NWZ3 1-460): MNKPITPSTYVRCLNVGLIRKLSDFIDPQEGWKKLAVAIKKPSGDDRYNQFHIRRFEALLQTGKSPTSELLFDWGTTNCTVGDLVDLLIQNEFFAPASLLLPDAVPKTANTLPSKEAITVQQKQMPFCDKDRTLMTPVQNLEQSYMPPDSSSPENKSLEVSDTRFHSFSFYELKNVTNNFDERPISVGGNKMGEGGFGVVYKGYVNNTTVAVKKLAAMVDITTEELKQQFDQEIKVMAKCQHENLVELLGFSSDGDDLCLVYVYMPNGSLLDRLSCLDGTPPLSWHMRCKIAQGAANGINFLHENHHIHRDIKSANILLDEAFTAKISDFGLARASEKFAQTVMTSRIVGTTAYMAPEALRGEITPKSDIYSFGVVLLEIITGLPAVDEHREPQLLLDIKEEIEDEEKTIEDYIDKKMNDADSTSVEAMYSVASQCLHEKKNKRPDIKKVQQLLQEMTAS
Kind of data set: Detection of HiBiT-IRAK4 proteolysis levels in K562 IRAK4-HiBiT cells (Nano-Glo HiBiT Lytic assay). In kind it is cell-based. How it is done: Test Example 1 Detection of HiBiT-IRAK4 proteolysis levels in K562 IRAK4-HiBiT cells co-incubated with compounds of the present application • Reagents, devices, and consumables in experiments: • Nano-Glo Lytic Detection Assay, purchased from Promega; • EnVision, purchased from PerkinElmer; • Name of cell line: K562 IRAK4-HiBiT stable transformation cell strain (capable of stably expressing IRAK4-HiBiT fusion protein), constructed by Shanghai Bioduro Biologics Co., Ltd., where a K562 cell strain was purchased from ATCC. The culture medium is IMDM+10% FBS+1% P/S (volume percentage, where FBS is fetal bovine serum and P/S is Penicillin-Streptomycin, a 1:1 mixture of penicillin and streptomycin antibiotic solution (10,000 units/mL)).
Cell culture: K562 IRAK4-HiBiT cells were incubated at 37°C, and passaged every 2-3 d, with a seeding density of 200,000 cells/mL.
IRAK4-HiBiT proteolysis experiment: • Step 1: Cell seeding and treatment of compound • 1. A 10 mM compound mother liquor was prepared using DMSO, and a compound solution with a working concentration of 1,000 times (the highest working concentration is 10 µM, diluted 3.162 times, with a total of 10 concentration gradients) was prepared using Bravo automatic liquid processing platform. • 2. 40 nL of a compound working solution was transferred to a 384 well plate, and an equal volume of DMSO was added to positive control wells. • 3. 20 µL of a culture solution was added per well and shaken for 10 min. • 4.20 µL of a K562 IRAK4-HiBiT cell suspension was added per well (6,000 cells/well), and an equal volume of culture medium was added to negative control wells. • 5. The well plate was rotated at 1,000 rpm for 1 min. • 6. The cells were incubated in a 5% CO2 incubator at 37°C for 2 h or 6 h. • Step 2: HiBiT Lytic experiment • 1. The well plate was placed at room temperature to equilibrate for 30 min. • 2. 20 µL of Nano-Glo HiBiT Lytic reagent (trade name: Nano-Glo® HiBiT Lytic Detection Reagent) and the well plate was kept in the dark. • 3. The well plate was placed on an orbital shaker at 300 rpm for 5 min. • 4. The cells were incubated at room temperature for 10 min. • 5. The luminous value was read by Envision. • 6. Data was calculated and processed. Degradation degree%=(negative control - experimental well)/(negative control - positive control) * 100%. Using XL-fit software, a degradation curve was obtained by fitting using a 4 Parameter Logistic Model, and the values of Relative DC50 (nM) and Absolute DC50 (nM) were obtained.

For data set [2], the system named is LPS induced IL-6 release in human PBMC cells. Kind of data set: Inhibition of LPS induced IL-6 release in human PBMC cells (IL-6 HTRF assay). Conditions: 2 h compound pre-incubation, LPS 5 ng/mL for 4 h, IL-6 in supernatant. In kind it is cell-based. On the procedure:
I. Recovery and seeding of PBMC, and treatment of compounds (human PBMC cells were purchased from Oricell, item number: Fpb003F)
• 1. Preparation of compounds Sample dilutions of a series of concentrations were obtained by dilution in DMSO using Bravo, and then 80 nL was transferred into a cell plate using ECHO. The final concentration of DMSO in the cell culture medium is 0.1%. • 2. Frozen cells were quickly thawed in a 37°C water bath and stirred continuously. • 3. 25 mL of fresh preheated culture medium was added into a 50 mL centrifuge tube, and then the cells were added dropwise. Then the cells were centrifuged at 2,000 rpm for 10 min. • 4. […] The total number of cells required was calculated based on cell concentration to perform the assay. 7×10e4 cells were added per well (70 µL). • 6. The cell plate was placed and incubated in a 5% CO2 incubator at 37°C for 2 h.
• 1. LPS: A stock solution (1 mg/mL) was diluted in dH2O, aliquoted, and stored at -80°C. • 2. 8-fold LPS was added per well (10 µl/well) (with a final concentration of 5 ng/mL). The cells were incubated in a 5% CO2 incubator at 37°C for 4 h. • 3. 70 µl of supernatant was collected per well using Bravo, and then IL-6 HTRF assay was performed. The supernatant may be stored at -80°C.
1. Preparation of standards and sample dilutions. 2. 16 µL of each sample was taken using Bravo and added to wells. Then 16 µL of each standard was taken and added to corresponding wells. 3.4 µL of a premixed IL6 antibody working solution was added to each of all wells. 4. The cell plate was sealed and incubated at room temperature for 2 h. 5.
For orientation: In TR-FRET formats the signal depends on donor and acceptor labels being close together.

Data set [3] is described as follows: Pharmacokinetic behavior in mice (plasma concentration by LC-MS/MS). The note with it: male ICR mice; for Vd: read-out: Vss. It is filed as in vivo. How it is done:
Three healthy ICR mice (SPF grade, from Beijing Vital River Laboratory Animal Technology Co., Ltd.), male, weighing 18-25 g, were intravenously injected with a compound (1 mg/kg) at a volume of 5 mL/kg. The compound was prepared using 5% DMSO+10% Solutol+85% Saline (w/v), and the animals were not fasted before the experiment.
Three healthy ICR mice (SPF grade, from Beijing Vital River Laboratory Animal Technology Co., Ltd.), male, weighing 18-25 g, were intragastrically administered a compound (5 mg/kg) at a volume of 10 mL/kg. The compound was prepared using 5% DMSO+10% Solutol+85% Saline (w/v), and the animals were not fasted before the experiment.
Blood samples (about 0.05 mL each) were collected from the cheeks at 5 min, 15 min, 30 min, 1 h, 2 h, 4 h, 6 h, 8 h, and 24 h after intravenous administration, and at 5 min, 15 min, 30 min, 1 h, 2 h, 4 h, 6 h, 8 h, and 24 h after intragastrical administration, and anticoagulated with heparin sodium. Following collection, the blood samples were placed on ice and the plasma was centrifuged within 1 h (centrifugation conditions: 6,000 g, 3 min, 2 °C to 8°C). The concentration of the compounds in the plasma was determined by liquid chromatography tandem mass spectrometry. The plasma samples were stored in a -80°C freezer before analysis. With plasma concentration data at different time points, pharmacokinetic parameters were calculated by Phoenix WinNonlin8.2.0, and the results are shown in Table 4: Table 4

Where [4] appears, read: 2 h incubation, read-out: Absolute DC50.
Where [5] appears, read: 2 h incubation, read-out: Relative DC50.
Where [6] appears, read: mouse, plasma, po, Intragastric administration (5 mg/kg).
Setting [7] is: mouse, plasma, po, Intragastric administration (5 mg/kg), read-out: Cmax.
The mark [8] stands for this setting: mouse, plasma, Intravenous injection (1 mg/kg).
Setting [9] is: mouse, plasma, Intravenous injection (1 mg/kg), read-out: Cmax.
The mark [10] stands for this setting: 6 h incubation, read-out: Absolute DC50.
Where [11] appears, read: 6 h incubation, read-out: Relative DC50.
The mark [12] stands for this setting: Intragastric administration (5 mg/kg).
Setting [13] is: Intravenous injection (1 mg/kg).

Structures are written as SMILES. Like-named read-outs stand apart in the source and are kept apart here.

What is called IC50 is the midpoint of a concentration-inhibition curve. Low readings indicate higher potency, high ones lower potency. What is called AUC(0-t) is exposure summed from dosing to a finite time, without extrapolation to infinity. High values mean more exposure, low ones less exposure. Usually bioavailability stands for dose-corrected exposure relative to a reference, in per cent. A higher bioavailability goes with good availability. The term half-life denotes how long it takes for the measured level to halve. In general, Cmax refers to the maximum level reached in the sampled fluid or tissue. A word on the clearance: it is the volume of plasma or blood freed of the substance per unit of time. What is called Vss is a proportionality between amount in the body and measured concentration, not a real space.

In data set [1] (2 h incubation), `CC(C)(O)c1cc2nn([C@H]3CC[C@H](CCN4CCN5c6c(F)cc(C7CCC(=O)NC7=O)cc6OCC5C4)CC3)cc2cc1NC(=O)c1cccc(C(F)(F)F)n1` (stereo partly drawn) [Compound 4] came in with a Dmax of 90%. Also, the DC50 in data set [1] (setting [4]) came to 9.85 nM. In addition, the DC50 in data set [1] (setting [5]) stood at 8.71 nM. Moreover, the midpoint of inhibition in data set [2], the IC50, lay at 4.08 nM. In data set [3] (setting [6]), this molecule gave an exposure AUC(0-t) of 34200 ng·h/mL, a bioavailability of 60.1% and a half-life of 14.8 h. In data set [3] (setting [7]), the Cmax is 2130 ng/mL. Moreover, in data set [3] (setting [8]), the AUC(0-t) was determined as 10500 ng·h/mL, the clearance turned out to be 1.27 mL/min/kg and the Vd was found to be 1.07 L/kg. In addition, in data set [3] (setting [9]), the Cmax is 1320 ng/mL.
With `COc1cc2nn([C@H]3CC[C@H](CCN4CCC5(CC4)OCc4cc(C6CCC(=O)NC6=O)ccc45)CC3)cc2cc1NC(=O)c1cccc(C(F)(F)F)n1` (stereo partly drawn) [Compound 46], the Dmax in data set [1] (6 h incubation) came out at 93.6%. In addition, the DC50 in data set [1] (setting [10]) came out at 0.92 nM. The DC50 in data set [1] (setting [11]) is 0.79 nM. This molecule also gave an IC50 in data set [2] of 13.7 nM. For the same molecule, in data set [3] (setting [12]), the AUClast is 3815 ng·h/mL, the Cmax is on record as 207 ng/mL, the F% is given as 68.7% and the T1/2 is 27.3 h. Besides, in data set [3] (setting [13]), the AUClast came to 932 ng·h/mL, the CL was found to be 6.80 mL/min/kg, the Cmax was determined as 128 ng/mL and the Vss amounted to 21.4 L/kg.
Consider `CC(C)(O)c1cc2nn([C@H]3CC[C@H](CCN4CCC5(CC4)OC(=O)c4cc(C6CCC(=O)NC6=O)ccc45)CC3)cc2cc1NC(=O)c1cccc(C(F)(F)F)n1` (stereo partly drawn) [Compound 93], for which the Dmax in data set [1] (2 h incubation) was determined as 94%. Also, the DC50 in data set [1] (setting [4]) is 0.74 nM. Also, the DC50 in data set [1] (setting [5]) came to 0.93 nM. Further, it took 0.18 nM to reach half-maximal inhibition in data set [2] (IC50). In data set [3] (setting [6]), this molecule gave an AUC(0-t) of 9150 ng·h/mL, a bioavailability of 29.5% and a half-life of 4.19 h. In data set [3] (setting [7]), the Cmax turned out to be 844 ng/mL. In data set [3] (setting [8]), the AUC(0-t) stood at 6210 ng·h/mL, the clearance amounted to 2.98 mL/min/kg and the Vd came out at 0.958 L/kg. Further, the maximum concentration (Cmax) in data set [3] (setting [9]) worked out at 783 ng/mL.
`COc1cc2nn([C@H]3CC[C@H](CCN4CCC5(CC4)OCc4cc(C6CCC(=O)NC6=O)ccc45)CC3)cc2cc1C(=O)Nc1cccc(C(F)(F)F)n1` (stereo partly drawn) [Compound 96] yielded a Dmax in data set [1] (6 h incubation) of 97%. Further, the DC50 in data set [1] (setting [10]) came out at 0.48 nM. Moreover, the DC50 in data set [1] (setting [11]) turned out to be 0.44 nM. The molecule further displayed an IC50 in data set [2] of 0.23 nM. In data set [3] (setting [6]), this molecule showed an AUC(0-t) of 3640 ng·h/mL, a bioavailability of 35.4% and a half-life of 14.7 h. Also, the peak concentration (Cmax) in data set [3] (setting [7]) amounted to 239 ng/mL. For the same molecule, in data set [3] (setting [8]), the AUC(0-t) was found to be 2060 ng·h/mL, the clearance amounted to 4.59 mL/min/kg and the Vd is 7.97 L/kg. Further, the Cmax in data set [3] (setting [9]) stood at 243 ng/mL.

The record behind these values is patent EP4696691A1, “TRICYCLIC COMPOUND, AND PREPARATION METHOD THEREFOR AND USE THEREOF” (Shanghai Huilun Pharmaceutical Co., Ltd., priority 2023, dated 2024).
